The assay addresses receptors for neuropeptide Y (porcine spleen crude membranes). Kind of assay: 125I-Bolton-Hunter-neuropeptide Y binding in porcine spleen crude membranes. Conditions: competition with 0.1 nM BHNPY, room temperature 2 hr, pH 7.4. On the procedure: 145:21-9 (1988). ^125 I-Bolton-Hunter-neuropeptide Y (BHNPY; Amersham) binding was carried out in porcine spleen crude membranes. Membranes from frozen spleen were prepared as described previously for tachykinin peptide binding studies (Buck et al., 1984). An aliquot of membrane preparation (approximately 15 mg tissue) was incubated at room temperature for 2 hr in buffer (pH 7.4) containing the peptide analog, 130 mM NaCl, 2.7 mM KCl, 2 mM MgCl2, 1.8 mM CaCl2, 20 mM HEPES, 4 mg/ml BSA, 40 μg/ml bacitracin, 4 μg/ml leupeptin and […] chymostatin. BHNPY was included in a concentration of 0.1 nM and non-specific binding was determined by the inclusion of 1 μM pNPY. Samples were rapidly filtered over Whatman GF/C filters presoaked overnight in 0.5% histone (type II-AS; Sigma) and washed two times with ice-cold, plain HEPES-salt buffer (pH 7.4). IC50 values for test peptides were calculated from 6 to 10 point competition curves.

The text below walks through data of US5395823A, “Neuropeptide Y agonists and partial agonists” (Merrell Dow Pharmaceuticals Inc., priority 1993, dated 1995).

Usually IC50 stands for the point on the concentration scale where inhibition reaches its midpoint. A high value points to weaker potency.

Where only a bound is given, the exact number is not on record here.

As for “Y--P--S--K--P--D--N--P--G--E--D--A--P--A--E--E--L--S--Y--Y--A--A--L--R--H- -Y--L--N--L--L--T--R--Q--R--Y--# [Example 1]”, the IC50 is < 50 nM.
